Experimental data reported in the NIST ThermoML archive (doi:10.1021/acs.jced.5b00367).
“And” between values parts separate entries of the source, which are not always exact repeats. Equal values may be shown once. Numbers after ± are expanded uncertainties.

Assay: wn = mass fraction of the nth substance listed
Conditions: 101 kPa, Liquid, Alternating current cell with electrodes, w1 = 0.01

CCCCCCCCCCCC[N+](CC)(CC)CCCCCCCCCCCC.[Br-] [didodecyldiethylammonium bromide] + O
Conditions | electrical conductivity
315.45 K | 0.0223 ± 0.0089 S/m
315.55 K | 0.0224 ± 0.009 S/m
315.65 K | 0.0224 ± 0.009 S/m
315.75 K | 0.0226 ± 0.009 S/m
315.85 K | 0.0227 ± 0.0091 S/m
315.95 K | 0.0228 ± 0.0091 S/m
316.05 K | 0.0228 ± 0.0091 S/m
316.15 K | 0.023 ± 0.0092 S/m
316.25 K | 0.023 ± 0.0092 S/m
316.35 K | 0.0231 ± 0.0092 S/m
316.45 K | 0.0233 ± 0.0093 S/m
316.55 K | 0.0234 ± 0.0094 S/m
316.65 K | 0.0236 ± 0.0094 S/m
316.85 K | 0.0238 ± 0.0095 S/m
317.05 K | 0.0239 ± 0.0096 S/m
317.15 K | 0.0242 ± 0.0097 S/m
317.25 K | 0.0242 ± 0.0097 S/m
317.35 K | 0.0244 ± 0.0098 S/m
317.45 K | 0.0245 ± 0.0098 S/m
317.55 K | 0.0246 ± 0.0098 S/m
317.65 K | 0.0247 ± 0.0099 S/m
317.75 K | 0.0249 ± 0.01 S/m
317.85 K | 0.0249 ± 0.01 S/m
317.95 K | 0.0252 ± 0.01 S/m
318.05 K | 0.0253 ± 0.01 S/m
318.15 K | 0.0253 ± 0.01 S/m
318.25 K | 0.0255 ± 0.01 S/m
318.35 K | 0.0257 ± 0.01 S/m
318.45 K | 0.0259 ± 0.01 S/m
318.55 K | 0.0259 ± 0.01 S/m
318.65 K | 0.026 ± 0.01 S/m
318.75 K | 0.0262 ± 0.01 S/m
318.85 K | 0.0263 ± 0.011 S/m
318.95 K | 0.0264 ± 0.011 S/m
319.05 K | 0.0265 ± 0.011 S/m
319.15 K | 0.0266 ± 0.011 S/m
319.25 K | 0.0268 ± 0.011 S/m
319.35 K | 0.027 ± 0.011 S/m
319.45 K | 0.0271 ± 0.011 S/m
319.55 K | 0.0272 ± 0.011 S/m
319.65 K | 0.0273 ± 0.011 S/m
319.75 K | 0.0275 ± 0.011 S/m
319.85 K | 0.0276 ± 0.011 S/m
319.95 K | 0.0277 ± 0.011 S/m
320.05 K | 0.0278 ± 0.011 S/m
320.15 K | 0.028 ± 0.011 S/m
320.25 K | 0.0282 ± 0.011 S/m
320.35 K | 0.0283 ± 0.011 S/m
320.45 K | 0.0283 ± 0.011 S/m
320.55 K | 0.0286 ± 0.011 S/m
320.65 K | 0.0288 ± 0.012 S/m
320.75 K | 0.0289 ± 0.012 S/m
320.85 K | 0.029 ± 0.012 S/m
320.95 K | 0.0292 ± 0.012 S/m
321.05 K | 0.0293 ± 0.012 S/m
321.15 K | 0.0294 ± 0.012 S/m
321.25 K | 0.0296 ± 0.012 S/m
321.35 K | 0.0298 ± 0.012 S/m
321.45 K | 0.03 ± 0.012 S/m
321.55 K | 0.0301 ± 0.012 S/m
321.65 K | 0.0303 ± 0.012 S/m
321.75 K | 0.0304 ± 0.012 S/m
321.85 K | 0.0306 ± 0.012 S/m
321.95 K | 0.0308 ± 0.012 S/m
322.15 K | 0.031 ± 0.012 S/m
322.25 K | 0.0312 ± 0.012 S/m
322.35 K | 0.0314 ± 0.013 S/m
322.45 K | 0.0315 ± 0.013 S/m
322.55 K | 0.0316 ± 0.013 S/m
322.65 K | 0.0317 ± 0.013 S/m
322.75 K | 0.0318 ± 0.013 S/m
322.85 K | 0.0319 ± 0.013 S/m
323.35 K | 0.0323 ± 0.013 S/m
323.55 K | 0.0324 ± 0.013 S/m
323.75 K | 0.0326 ± 0.013 S/m
324.05 K | 0.033 ± 0.013 S/m
324.25 K | 0.0332 ± 0.013 S/m
324.55 K | 0.0334 ± 0.013 S/m
324.75 K | 0.0338 ± 0.014 S/m
325.05 K | 0.0339 ± 0.014 S/m
325.35 K | 0.0344 ± 0.014 S/m
325.55 K | 0.0348 ± 0.014 S/m
325.85 K | 0.0352 ± 0.014 S/m
326.35 K | 0.036 ± 0.014 S/m
326.75 K | 0.0368 ± 0.015 S/m
327.35 K | 0.0372 ± 0.015 S/m
327.95 K | 0.0384 ± 0.015 S/m
328.55 K | 0.0392 ± 0.016 S/m
328.85 K | 0.0402 ± 0.016 S/m
329.55 K | 0.0411 ± 0.016 S/m
330.25 K | 0.0426 ± 0.017 S/m
331.05 K | 0.0442 ± 0.018 S/m
331.85 K | 0.0461 ± 0.018 S/m
332.25 K | 0.0461 ± 0.018 S/m
332.95 K | 0.0482 ± 0.019 S/m
333.35 K | 0.049 ± 0.02 S/m
333.55 K | 0.0491 ± 0.02 S/m
333.75 K | 0.0491 ± 0.02 S/m
333.85 K | 0.0493 ± 0.02 S/m
333.95 K | 0.0496 ± 0.02 S/m
334.05 K | 0.0501 ± 0.02 S/m
334.15 K | 0.0501 ± 0.02 S/m
334.25 K | 0.0504 ± 0.02 S/m
334.35 K | 0.0505 ± 0.02 S/m
334.45 K | 0.0507 ± 0.02 S/m
334.55 K | 0.0507 ± 0.02 S/m
334.65 K | 0.0509 ± 0.02 S/m
334.75 K | 0.0512 ± 0.02 S/m
334.85 K | 0.0514 ± 0.021 S/m
334.95 K | 0.0514 ± 0.021 S/m
335.05 K | 0.0514 ± 0.021 S/m
335.15 K | 0.0515 ± 0.021 S/m
335.25 K | 0.0519 ± 0.021 S/m
335.35 K | 0.052 ± 0.021 S/m
335.45 K | 0.0521 ± 0.021 S/m
335.65 K | 0.0524 ± 0.021 S/m
335.75 K | 0.0526 ± 0.021 S/m
335.95 K | 0.0528 ± 0.021 S/m
336.05 K | 0.0531 ± 0.021 S/m
336.15 K | 0.0531 ± 0.021 S/m
336.25 K | 0.0532 ± 0.021 S/m
336.35 K | 0.0536 ± 0.021 S/m
336.45 K | 0.0537 ± 0.021 S/m
336.55 K | 0.0539 ± 0.022 S/m
336.65 K | 0.0542 ± 0.022 S/m
336.75 K | 0.0544 ± 0.022 S/m
336.85 K | 0.0545 ± 0.022 S/m
336.95 K | 0.0546 ± 0.022 S/m
337.05 K | 0.0548 ± 0.022 S/m
337.15 K | 0.0549 ± 0.022 S/m
337.25 K | 0.0551 ± 0.022 S/m
337.35 K | 0.0552 ± 0.022 S/m
337.45 K | 0.0553 ± 0.022 S/m
337.55 K | 0.0556 ± 0.022 S/m
337.65 K | 0.0556 ± 0.022 S/m
337.75 K | 0.0558 ± 0.022 S/m
337.85 K | 0.0559 ± 0.022 S/m
337.95 K | 0.0563 ± 0.023 S/m
338.05 K | 0.0564 ± 0.023 S/m
338.15 K | 0.0566 ± 0.023 S/m
338.25 K | 0.0568 ± 0.023 S/m
338.35 K | 0.0569 ± 0.023 S/m
338.45 K | 0.0571 ± 0.023 S/m
338.55 K | 0.0573 ± 0.023 S/m
338.65 K | 0.0575 ± 0.023 S/m
338.75 K | 0.0577 ± 0.023 S/m
338.85 K | 0.0578 ± 0.023 S/m
338.95 K | 0.058 ± 0.023 S/m
339.05 K | 0.0583 ± 0.023 S/m
339.15 K | 0.0582 ± 0.023 S/m
339.25 K | 0.0585 ± 0.023 S/m
339.35 K | 0.0587 ± 0.023 S/m
339.45 K | 0.0588 ± 0.024 S/m
339.55 K | 0.0591 ± 0.024 S/m
339.65 K | 0.0592 ± 0.024 S/m
339.75 K | 0.0593 ± 0.024 S/m
339.85 K | 0.0596 ± 0.024 S/m
339.95 K | 0.0598 ± 0.024 S/m
340.05 K | 0.06 ± 0.024 S/m
340.15 K | 0.0602 ± 0.024 S/m
340.25 K | 0.0605 ± 0.024 S/m
340.35 K | 0.0606 ± 0.024 S/m
340.45 K | 0.0608 ± 0.024 S/m
340.55 K | 0.061 ± 0.024 S/m
340.65 K | 0.0612 ± 0.024 S/m
340.75 K | 0.0614 ± 0.025 S/m
340.85 K | 0.0614 ± 0.025 S/m
340.95 K | 0.0616 ± 0.025 S/m
341.05 K | 0.062 ± 0.025 S/m
341.15 K | 0.062 ± 0.025 S/m
341.25 K | 0.0622 ± 0.025 S/m
341.35 K | 0.0624 ± 0.025 S/m
341.45 K | 0.0625 ± 0.025 S/m
341.55 K | 0.0627 ± 0.025 S/m
341.65 K | 0.0629 ± 0.025 S/m
341.75 K | 0.063 ± 0.025 S/m
341.85 K | 0.0633 ± 0.025 S/m
341.95 K | 0.0633 ± 0.025 S/m
342.05 K | 0.0637 ± 0.025 S/m
342.15 K | 0.0639 ± 0.026 S/m
342.25 K | 0.064 ± 0.026 S/m
342.35 K | 0.0642 ± 0.026 S/m
342.45 K | 0.0643 ± 0.026 S/m
342.55 K | 0.0645 ± 0.026 S/m
342.65 K | 0.0649 ± 0.026 S/m
342.75 K | 0.0651 ± 0.026 S/m
342.85 K | 0.0654 ± 0.026 S/m
342.95 K | 0.0656 ± 0.026 S/m
343.05 K | 0.0657 ± 0.026 S/m
343.15 K | 0.0658 ± 0.026 S/m
343.25 K | 0.0662 ± 0.026 S/m
343.35 K | 0.0663 ± 0.027 S/m
343.45 K | 0.0663 ± 0.027 S/m
343.55 K | 0.0664 ± 0.027 S/m
343.65 K | 0.0667 ± 0.027 S/m
343.75 K | 0.0667 ± 0.027 S/m
343.85 K | 0.067 ± 0.027 S/m
343.95 K | 0.0674 ± 0.027 S/m
344.05 K | 0.0675 ± 0.027 S/m
344.15 K | 0.0674 ± 0.027 S/m
344.25 K | 0.0677 ± 0.027 S/m
344.35 K | 0.0678 ± 0.027 S/m
344.45 K | 0.0679 ± 0.027 S/m
344.55 K | 0.0679 ± 0.027 S/m
344.65 K | 0.068 ± 0.027 S/m
344.75 K | 0.0685 ± 0.027 S/m
344.85 K | 0.0686 ± 0.027 S/m
344.95 K | 0.0689 ± 0.028 S/m
345.05 K | 0.0688 ± 0.028 S/m
345.15 K | 0.069 ± 0.028 S/m
345.25 K | 0.069 S/m and 0.0692 S/m
345.35 K | 0.0692 ± 0.028 S/m
345.45 K | 0.0694 ± 0.028 S/m
345.55 K | 0.0697 ± 0.028 S/m
345.65 K | 0.0699 ± 0.028 S/m
345.75 K | 0.0699 ± 0.028 S/m
345.85 K | 0.07 ± 0.028 S/m
345.95 K | 0.0701 ± 0.028 S/m
346.05 K | 0.0702 ± 0.028 S/m
346.15 K | 0.0704 ± 0.028 S/m
346.25 K | 0.0707 ± 0.028 S/m
346.35 K | 0.0709 ± 0.028 S/m
346.45 K | 0.0708 ± 0.028 S/m
346.55 K | 0.0709 ± 0.028 S/m
346.65 K | 0.0712 ± 0.028 S/m
346.75 K | 0.0712 ± 0.028 S/m
346.85 K | 0.0713 ± 0.029 S/m
